Test results taken from patent US8410153B2, “Naphthalene isoxazoline invertebrate pest control agents” (E.I. du Pont de Nemours and Company, priority 2007, dated 2013).

Experiments:
Assay type in all cases: in vivo
[1] = test system: western flower thrips (Frankliniella occidentalis); assay: Test E: control of western flower thrips on Soleil bean plant, contact and/or systemic; settings: held 6 days
Procedure: (§1) Test compounds were formulated using a solution containing 10% acetone, 90% water and 300 ppm X-77™ Spreader Lo-Foam Formula non-ionic surfactant containing alkylarylpolyoxyethylene, free fatty acids, glycols and isopropanol (Loveland Industries, Inc. Greeley, Colo., USA). The formulated compounds were applied in 1 mL of liquid through a SUJ2 atomizer nozzle with ⅛ JJ custom body (Spraying Systems Co. Wheaton, Ill., USA) positioned 1.27 cm (0.5 inches) above the top of each test unit. All experimental compounds in these tests were sprayed at 50 ppm, and the test was replicated three times. After spraying of the formulated test compound, each test unit was allowed to dry for 1 h and then a black, screened cap was placed on top. The test units were held for 6 days in a growth chamber at 25° C. and 70% relative humidity. Plant feeding damage was then visually assessed based on foliage consumed, and a pest mortality rating was also counted and calculated for each test unit.
For evaluating control of the western flower thrips (Frankliniella occidentalis) through contact and/or systemic means, the test unit consisted of a small open container with a 5-7-day-old Soleil Bean plant inside. Test compounds were formulated and sprayed as described for Test A. All experimental compounds in these tests were sprayed at 250 or 50 ppm as noted, and the test was replicated three times. After spraying, the test units were allowed to dry for 1 h, 22-27 adult thrips were added to each unit and then a black, screened cap was placed on top. The test units were held for 6 days at 25° C. and 45-55% relative humidity. A mortality rating was assessed along with a plant damage rating for each test unit.

[2] = test system: diamondback moth (Plutella xylostella); assay: Test A: control of diamondback moth on radish plant, foliar spray; settings: sprayed at 50 ppm, held 6 days
Excerpt: For evaluating control of diamondback moth (Plutella xylostella) the test unit consisted of a small open container with a 12-14-day-old radish plant inside. This was pre-infested with about 50 neonate larvae that were dispensed into the test unit via corncob grits using a bazooka inoculator. The larvae moved onto the test plant after being dispensed into the test unit.
as §1

[3] = test system: fall armyworm (Spodoptera frugiperda); assay: Test B: control of fall armyworm on corn (maize) plant, foliar spray; settings: sprayed at 50 ppm
Procedure: as §1
For evaluating control of fall armyworm (Spodoptera frugiperda) the test unit consisted of a small open container with a 4-5-day-old corn (maize) plant inside. This was pre-infested (using a core sampler) with 10-15 1-day-old larvae on a piece of insect diet. Test compounds were formulated and sprayed at 50 ppm as described for Test A and replicated three times. After spraying, the test units were maintained in a growth chamber and then the control efficacy was rated for each test unit as described for Test A.

Measured: levels of control efficacy (20% or less feeding damage or 80% or more mortality)

CC(O)CNC(=O)c1ccc(C2=NOC(c3cccc(C(F)(F)F)c3)(C(F)(F)F)C2)c2ccccc12 (mixture of isomers) [Compound 36]
very good to excellent: [1]; sprayed at 250 ppm | [2] | [3]

CC(CO)NC(=O)c1ccc(C2=NOC(c3cccc(C(F)(F)F)c3)(C(F)(F)F)C2)c2ccccc12 (mixture of isomers) [Compound 41]
very good to excellent: [1]; sprayed at 50 ppm | [1]; sprayed at 250 ppm | [2] | [3]

COCC(C)NC(=O)c1ccc(C2=NOC(c3cccc(C(F)(F)F)c3)(C(F)(F)F)C2)c2ccccc12 (mixture of isomers) [Compound 47]
very good to excellent: [1]; sprayed at 50 ppm | [1]; sprayed at 250 ppm | [2] | [3]

CSCC(C)NC(=O)c1ccc(C2=NOC(c3cc(C(F)(F)F)cc(C(F)(F)F)c3)(C(F)(F)F)C2)c2ccccc12 (mixture of isomers) [Compound 59]
very good to excellent: [1]; sprayed at 50 ppm | [1]; sprayed at 250 ppm | [2] | [3]

CSCC(C)NC(=O)c1ccc(C2=NOC(c3cc(C(F)(F)F)cc(C(F)(F)F)c3)(C(F)(F)F)C2)c2ccccc12 (mixture of isomers) [Compound 60]
very good to excellent: [1]; sprayed at 250 ppm | [2] | [3]

CC(C)NC(=O)C(C)NC(=O)c1ccc(C2=NOC(c3cc(C(F)(F)F)cc(C(F)(F)F)c3)(C(F)(F)F)C2)c2ccccc12 (mixture of isomers) [Compound 83]
very good to excellent: [1]; sprayed at 50 ppm | [1]; sprayed at 250 ppm | [2] | [3]

CC(C)CNC(=O)C(C)NC(=O)c1ccc(C2=NOC(c3cc(C(F)(F)F)cc(C(F)(F)F)c3)(C(F)(F)F)C2)c2ccccc12 (mixture of isomers) [Compound 93]
very good to excellent: [1]; sprayed at 50 ppm | [2] | [3]

CCNC(=O)C(C)NC(=O)c1ccc(C2=NOC(c3cc(C(F)(F)F)cc(C(F)(F)F)c3)(C(F)(F)F)C2)c2ccccc12 (mixture of isomers) [Compound 96]
very good to excellent: [1]; sprayed at 250 ppm | [2] | [3]

CC(NC(=O)CNC(=O)c1ccc(C2=NOC(c3cc(Cl)cc(Cl)c3)(C(F)(F)F)C2)c2ccccc12)C(F)(F)F (mixture of isomers) [Compound 122]
very good to excellent: [1]; sprayed at 50 ppm | [1]; sprayed at 250 ppm | [2] | [3]

CC(NC(=O)c1ccc(C2=NOC(c3cc(Cl)cc(Cl)c3)(C(F)(F)F)C2)c2ccccc12)C(=O)NC(C)C(F)(F)F (mixture of isomers) [Compound 123]
very good to excellent: [1]; sprayed at 50 ppm | [1]; sprayed at 250 ppm | [2] | [3]

CC(NC(=O)c1ccc(C2=NOC(c3cc(C(F)(F)F)cc(C(F)(F)F)c3)(C(F)(F)F)C2)c2ccccc12)C(=O)NCC(C)(C)C (mixture of isomers) [Compound 124]
very good to excellent: [1]; sprayed at 250 ppm | [2] | [3]

C[S+]([O-])CCNC(=O)c1ccc(C2=NOC(c3cc(F)cc(C(F)(F)F)c3)(C(F)(F)F)C2)c2ccccc12 (mixture of isomers) [Compound 133]
very good to excellent: [1]; sprayed at 50 ppm | [1]; sprayed at 250 ppm | [2] | [3]

CCNC(=O)C(C)NC(=O)c1ccc(C2=NOC(c3cc(F)cc(C(F)(F)F)c3)(C(F)(F)F)C2)c2ccccc12 (mixture of isomers) [Compound 137]
very good to excellent: [1]; sprayed at 50 ppm | [2] | [3]

CNC(=O)C(C)NC(=O)c1ccc(C2=NOC(c3cc(F)cc(C(F)(F)F)c3)(C(F)(F)F)C2)c2ccccc12 (mixture of isomers) [Compound 138]
very good to excellent: [1]; sprayed at 50 ppm | [2] | [3]

CC(NC(=O)c1ccc(C2=NOC(c3cc(F)cc(C(F)(F)F)c3)(C(F)(F)F)C2)c2ccccc12)C(=O)NCC(F)(F)F (mixture of isomers) [Compound 139]
very good to excellent: [1]; sprayed at 50 ppm | [2] | [3]

CC(NC(=O)c1ccc(C2=NOC(c3cc(Br)cc(C(F)(F)F)c3)(C(F)(F)F)C2)c2ccccc12)C(=O)NCC(F)(F)F (mixture of isomers) [Compound 140]
very good to excellent: [1]; sprayed at 50 ppm | [2] | [3]

CNC(=O)C(C)NC(=O)c1ccc(C2=NOC(c3cc(Br)cc(C(F)(F)F)c3)(C(F)(F)F)C2)c2ccccc12 (mixture of isomers) [Compound 141]
very good to excellent: [1]; sprayed at 50 ppm | [2] | [3]
